Test results: US8246966B2, “Trypanosome microsome system and uses thereof” (priority 2006, dated 2012)

Legend:
[1] = tested on: T. brucei microsomes (TbRM); assay: Post-translational import of VSG—11786 into T. brucei microsomes, proteinase K protection (Example 2); assay type: biochemical, Trypanosoma brucei; settings: for effect on protein import into TbRM (in words): VSG—11786 substrate
Description: FIGS. 2A and 2B show the effect of protein translocation inhibitors on TbRM. FIG. 2A presents the protocol used for import of VSG—117500. In FIG. 2B, SG—117500 mRNA was translated in rabbit reticulocyte lysate with 1.5 equivalents T. brucei cytosol (pretreated with MAL3-101 (0.3 μM), MAL3-51 (1 μM), CJ21,058 (20 μM) or equisetin (50 μM)) for 60 minutes. The reaction mixtures were treated with cycloheximide (50 μg/ml, final concentration) and incubated with TbRM (one equivalent). The mixture was incubated for 60 minutes at 37° C. and digested with proteinase K digestion (30 μg/ml, final concentration) for 60 minutes on ice. Proteins were resolved by SDS-PAGE and detected by phosphorimaging. In lanes 1 and 2, TbRM were pretreated with DMSO. Lane 1 is untreated VSG—117500 with TbRM; lane 2 is VSG—117500 incubated with TbRM and treated with proteinase K. In lanes 3 and 4 TbRM were pretreated with MAL3-101. Lane 3 is VSG—117500 incubated with TbRM; lane 4 is VSG—117500 incubated with TbRM and then treated with proteinase K. In lanes 5 and 6 TbRM pretreated with MAL3-51. Lane 5 is VSG—117500 incubated with TbRM; lane 6 is VSG—117500 incubated with TbRM and then treated with proteinase K. In lanes 7 and 8 TbRM were pretreated with CJ-21,058). Lane 7 is VSG—117500 incubated with TbRM; lane 8 is VSG—117500 incubated with ThRM and then treated with proteinase K. In lanes 9 and 10 TbRM were pretreated with equisetin). Lane 9 is VSG—117500 incubated with TbRM; lane 10 is VSG—117500 incubated with TbRM and then treated with proteinase K.
Protein import into TbRM. Two micrograms (μg) of RNA encoding a truncated substrate (e.g., VSG—11786) was translated in […] of a reaction mixture containing 20 μl rabbit reticulocyte lysate, 60 μM amino acid mixture (-Met, -Cys), and 2.4 μCi [^35S]Promix. The reaction was incubated at 37° C. for 15 minutes. Cycloheximide (50 μg/ml, final concentration) was used to stop further translation, and the mixture was divided into two portions. T. brucei microsomes (ThRM) (1 equivalent) was added to one aliquot, and to the other portion an equal volume of RM buffer was added. The reactions were incubated at 37° C. for 45 minutes for protein import into TbRM to take place post-translationally.
Each reaction mixture was divided into three (each 10 μl) and treated with one of the following on ice for one hour: (I) RM buffer; (ii) 30 μg/ml protease K; (iii) nonidet P-40 (NP-40) (2%, final concentration) followed by protease K (30 μg/ml, final concentration). PMSF (20 mM final concentration) was added to stop protease K digestion. Samples were precipitated with an equal volume of cold (NH4)2SO4 sulphate (saturated) and resolved by sodium dodecyl sulfate-polyacrylamide gel electrophoresis (SDS-PAGE) (4% total acrylamide, 3% cross linker in tricene-HCl system) (Fekkes et al., 1998, Mol Microbiol; 29(5):1179-90). The gels were dried, and radioactive polypeptides detected with a phosphorimager (Molecular Imager FX, (BioRad). Data bands were quantitated with QuantityOne software (BioRad), and graphs were plotted with DeltaGraph (Red Rock software).
A small molecule inhibitor of Hsp70-Hsp40 interaction blocks protein translocation into TbRM. Post-translational ER protein translocation in Saccharomyces cerevisiae and E. coli requires cytosolic chaperones. In the yeast S. cerevisiae, for example, Ssa1p (Hsp70) and co-chaperone Ydj1p (Hsp40) (Becker et al., 1996, Mol Cell Biol; 16(8):4378-86; Ngosuwan et al., 2003, J Biol Chem; 278(9):7034-42; and McClellan et al., 1998, Mol Biol Cell; 9(12): 3533-45) as well as Kar2p/BiP stimulate post-translational protein import (Lyman and Schekman, 1995, J Cell Biol; 131(5):1163-71; Panzner et al., 1995, Cell; 81(4):561-70; and Holkeri et al., 1998, J Cell Sci; 111:749-757). […]

[2] = tested on: Blood stream form T. brucei CA427; assay: Trypanocidal activity against cultured blood stream form T. brucei (Example 2); assay type: cell-based, Trypanosoma brucei; settings: for IC50: read-out: concentration at which fifty percent of parasites were killed (IC50)
Description: Blood stream form T. brucei CA427 were grown in HMI-9 media to the cell density of 10^6. The cells were then transferred to 96 well plates with the addition of different concentrations of MAL3-101, MAL3-51, CJ-21,058 or equisetin. In controls, DMSO was added. Cell density was calculated at the end of 24 hours, and the graph was plotted.
Cell culture. Blood stream form T. brucei CA427 was cultured in HMI-9 medium (Hirumi and Hirumi, 1994, Parasitol Today; 10:80-84) to a maximum density of 10^6/ml. For use in drug sensitivity studies, cells were seeded at […], and one hundred microliters added to each well of a 96-well plate, with or without test compounds at stated concentrations, as discussed in Brief Descriptions of FIGS. 1-4. In controls, DMSO, the solvent for the compounds, was added. Cells were counted after 24 or 48 hours, using a hemocytometer, and the data graphed. All experiments were performed in triplicates.

inhibition of translocation of VSG—11786 into TbRM ([1]; CJ-21,058 20 μM)	Structure (SMILES)	effect on protein import into TbRM (in words) [1]	IC50 ([2]; cultured T. brucei)	VSG—11786 translocated into TbRM (protection from proteinase K digestion) ([1]; MAL3-101 present (0.3 μM in FIG. 2B legend), DMSO control 80%)	trypanocidal activity (in words) [2]	concentration at which one hundred percent of parasites were killed (IC100) ([2]; cultured T. brucei)	inhibition of translocation of VSG—11786 into TbRM ([1]; equisetin 25 μM)
95%	C/C=C/C1C(C)=CC2CC(C)CCC2C1(C)/C(O)=C1/C(=O)C(CO)N(C)C1=O (centres unmarked) [CJ-21,058]	inhibited import	7 µM				
	CCCCCCN(C(=O)CCCCCN1C(=O)NC(c2ccc(-c3ccccc3)cc2)C(C(=O)OCc2ccccc2)=C1C)C(C(=O)NCCCC)c1ccc(OCC(=O)OC)c(C(=O)OC)c1 (centres unmarked) [MAL3-101]	blocked import	0.125 µM	13%	killed T. brucei at sub-micromolar level	500 nM	
	C/C=C/[C@@H]1C=C[C@@H]2C[C@H](C)CC[C@H]2[C@]1(C)/C(O)=C1/C(=O)[C@H](CO)N(C)C1=O [equisetin]	inhibited import	3.3 µM				95%
